Results published in ChEMBL document CHEMBL3616398, “Recent advances on the synthesis of hepatitis C virus NS5B RNA-dependent RNA-polymerase inhibitors” (Eur J Med Chem, 2015).

What was measured:
Hepatitis C virus [1] = experiment: Antiviral activity against HCV genotype 1b replicon system; type: functional, organism-based, Hepacivirus hominis
Hepatitis C virus [2] = experiment: Antiviral activity against HCV genotype 1b infected in human Ava.5 cells after 3 days assessed as protection from virus-induced cytotoxicity by MTT assay; type: functional, organism-based, Hepacivirus hominis; details: Ava5, 72 h
[3] = Inhibition of HCV genotype 1b NS5B RNA dependent RNA polymerase assessed as inorganic pyrophosphate generation by luminometry; parameters: species or system Hepatitis C virus subtype 1b

| IC50 (Hepatitis C virus [1]) | IC50 [3] | Structure (SMILES) | EC50 (Hepatitis C virus [2]) |
| --- | --- | --- | --- |
| 8.3 µM |  | Cc1nc2c(s1)CCCn1c-2c(C2CCCCC2)c2ccc(C(=O)O)cc21 |  |
|  | 8.77 µM | O=C(NCCCc1ccccc1)c1nc2ccccc2c(=O)n1O | 17.5 µM |
